Measured values reported in US8536354B2, “Steroidal ligands and their use in gene switch modulation” (Intrexon Corporation, priority 2008, dated 2013).
Like-named read-outs stand apart in the source and are kept apart here.

Key:
[1] = system: D. melanogaster BII cell line (expresses the ecdysteroid receptor complex EcR-USP); test: Drosophila melanogaster BII cell line bioassay (turbidometric; agonist and antagonist versions); conditions: read-out: EC50 (M), BII bioassay results
[2] = system: NcEcR (GAL4-EcR DEF with VP16-RXR partner); test: Two-hybrid gene switch assay, luciferase reporter, NcEcR, mouse NIH3T3 cells; conditions: FIG. 14A/14B, GAL4-EcR(DEF)
[3] = target: T1, TmEcR (GAL4-EcR DEF with VP16-RXR partner) (Tenebrio molitor, UniProt O02035); test: Two-hybrid gene switch assay, luciferase reporter, TmEcR, mouse NIH3T3 cells; conditions: EC50, FIG. 14A/14B, GAL4-EcR(DEF)
T1 sequence (O02035 194-491): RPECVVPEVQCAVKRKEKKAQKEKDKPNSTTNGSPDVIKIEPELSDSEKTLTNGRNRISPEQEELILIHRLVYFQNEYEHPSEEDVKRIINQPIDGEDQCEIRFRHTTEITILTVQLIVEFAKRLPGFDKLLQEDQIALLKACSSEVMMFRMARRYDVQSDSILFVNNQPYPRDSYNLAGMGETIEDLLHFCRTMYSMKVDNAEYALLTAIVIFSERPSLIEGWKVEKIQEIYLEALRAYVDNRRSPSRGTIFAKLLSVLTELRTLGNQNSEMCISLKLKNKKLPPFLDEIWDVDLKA
T1 sequence (P28704 1-520 partner): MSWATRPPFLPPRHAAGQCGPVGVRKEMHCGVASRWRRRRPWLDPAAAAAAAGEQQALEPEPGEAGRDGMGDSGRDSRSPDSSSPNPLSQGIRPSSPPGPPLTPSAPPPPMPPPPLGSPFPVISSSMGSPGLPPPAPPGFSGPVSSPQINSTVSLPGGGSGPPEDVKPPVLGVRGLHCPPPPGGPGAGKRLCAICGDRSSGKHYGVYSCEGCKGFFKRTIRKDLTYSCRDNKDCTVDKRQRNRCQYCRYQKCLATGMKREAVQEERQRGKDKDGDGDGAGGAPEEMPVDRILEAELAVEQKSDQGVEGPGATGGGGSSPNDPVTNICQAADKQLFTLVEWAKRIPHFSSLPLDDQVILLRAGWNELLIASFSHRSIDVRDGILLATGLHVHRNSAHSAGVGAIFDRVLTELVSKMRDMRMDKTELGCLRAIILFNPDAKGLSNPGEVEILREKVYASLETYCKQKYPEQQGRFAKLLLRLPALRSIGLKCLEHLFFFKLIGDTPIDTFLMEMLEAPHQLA

[4] = target: wild-type Drosophila melanogaster EcR (DmEcR; GAL4-EcR DEF with VP16-RXR-USP chimera) (Drosophila melanogaster, UniProt P34021); test: Two-hybrid gene switch assay, luciferase reporter, wild-type DmEcR, mouse NIH3T3 cells; type: cell-based; conditions: FIG. 14A/14B, GAL4-EcR(DEF) with VP16-RXR-USP chimera, read-out: EC50
Sequence of wild-type Drosophila melanogaster EcR (DmEcR; GAL4-EcR DEF with VP16-RXR-USP chimera) (P34021 with tags, fused parts or gaps limits assumed): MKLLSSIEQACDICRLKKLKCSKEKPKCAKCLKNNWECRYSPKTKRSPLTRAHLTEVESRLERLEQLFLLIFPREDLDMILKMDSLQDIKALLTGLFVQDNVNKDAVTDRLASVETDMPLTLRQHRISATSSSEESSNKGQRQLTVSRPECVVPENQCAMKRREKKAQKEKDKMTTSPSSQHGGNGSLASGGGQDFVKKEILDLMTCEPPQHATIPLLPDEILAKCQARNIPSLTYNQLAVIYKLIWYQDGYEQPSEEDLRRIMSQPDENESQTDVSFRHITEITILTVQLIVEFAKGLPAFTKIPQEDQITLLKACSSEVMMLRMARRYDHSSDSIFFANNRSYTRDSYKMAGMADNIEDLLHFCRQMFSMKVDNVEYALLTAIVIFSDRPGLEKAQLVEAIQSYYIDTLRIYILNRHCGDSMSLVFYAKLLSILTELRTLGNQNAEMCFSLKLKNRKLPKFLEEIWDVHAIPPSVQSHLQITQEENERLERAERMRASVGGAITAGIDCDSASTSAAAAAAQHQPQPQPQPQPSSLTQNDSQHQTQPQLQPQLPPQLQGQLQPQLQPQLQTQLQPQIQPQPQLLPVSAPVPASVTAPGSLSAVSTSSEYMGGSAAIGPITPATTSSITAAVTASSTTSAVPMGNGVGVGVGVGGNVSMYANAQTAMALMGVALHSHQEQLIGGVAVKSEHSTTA

[5] = target: T2, AmaEcR (GAL4-EcR DEF with VP16-RXR-USP chimera) (Amblyomma americanum, UniProt O44338); test: Two-hybrid gene switch assay, luciferase reporter, AmaEcR, mouse NIH3T3 cells; conditions: EC50, FIG. 14A/14B, GAL4-EcR(DEF) with VP16-RXR-USP chimera
T2 sequence (O44338 255-570): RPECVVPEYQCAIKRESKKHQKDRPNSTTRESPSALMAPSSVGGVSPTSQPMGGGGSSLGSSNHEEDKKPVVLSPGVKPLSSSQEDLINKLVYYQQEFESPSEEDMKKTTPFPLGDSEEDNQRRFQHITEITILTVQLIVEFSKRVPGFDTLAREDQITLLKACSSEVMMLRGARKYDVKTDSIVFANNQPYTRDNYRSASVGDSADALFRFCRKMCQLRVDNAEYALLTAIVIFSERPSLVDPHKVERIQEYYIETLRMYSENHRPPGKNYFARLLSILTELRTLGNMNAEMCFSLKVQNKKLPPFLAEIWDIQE
T2 sequence (P28702 1-533 partner): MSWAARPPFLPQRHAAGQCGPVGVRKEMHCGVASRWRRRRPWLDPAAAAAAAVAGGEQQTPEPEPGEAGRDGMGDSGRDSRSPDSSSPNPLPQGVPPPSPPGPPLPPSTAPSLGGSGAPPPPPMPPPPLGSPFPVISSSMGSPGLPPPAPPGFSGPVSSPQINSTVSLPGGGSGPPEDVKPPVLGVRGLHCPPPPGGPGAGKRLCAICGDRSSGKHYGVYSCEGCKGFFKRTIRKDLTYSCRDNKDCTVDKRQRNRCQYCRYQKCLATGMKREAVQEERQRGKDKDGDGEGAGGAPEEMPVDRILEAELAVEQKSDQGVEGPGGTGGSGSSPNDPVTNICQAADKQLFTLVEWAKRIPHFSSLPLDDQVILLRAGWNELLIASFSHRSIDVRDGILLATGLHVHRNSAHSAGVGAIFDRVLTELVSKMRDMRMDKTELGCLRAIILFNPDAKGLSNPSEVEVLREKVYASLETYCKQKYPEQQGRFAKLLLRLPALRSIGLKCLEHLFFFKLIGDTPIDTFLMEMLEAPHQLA

[6] = target: wild-type Aedes aegypti EcR (AaEcR; GAL4-EcR DEF with VP16-RXR-USP chimera) (Aedes aegypti, UniProt P49880); test: Two-hybrid gene switch assay, luciferase reporter, wild-type AaEcR, mouse NIH3T3 cells; type: cell-based; conditions: FIG. 14A/14B, GAL4-EcR(DEF) with VP16-RXR-USP chimera, read-out: EC50
Sequence of wild-type Aedes aegypti EcR (AaEcR; GAL4-EcR DEF with VP16-RXR-USP chimera) (P49880 with tags, fused parts or gaps limits assumed, change not shown): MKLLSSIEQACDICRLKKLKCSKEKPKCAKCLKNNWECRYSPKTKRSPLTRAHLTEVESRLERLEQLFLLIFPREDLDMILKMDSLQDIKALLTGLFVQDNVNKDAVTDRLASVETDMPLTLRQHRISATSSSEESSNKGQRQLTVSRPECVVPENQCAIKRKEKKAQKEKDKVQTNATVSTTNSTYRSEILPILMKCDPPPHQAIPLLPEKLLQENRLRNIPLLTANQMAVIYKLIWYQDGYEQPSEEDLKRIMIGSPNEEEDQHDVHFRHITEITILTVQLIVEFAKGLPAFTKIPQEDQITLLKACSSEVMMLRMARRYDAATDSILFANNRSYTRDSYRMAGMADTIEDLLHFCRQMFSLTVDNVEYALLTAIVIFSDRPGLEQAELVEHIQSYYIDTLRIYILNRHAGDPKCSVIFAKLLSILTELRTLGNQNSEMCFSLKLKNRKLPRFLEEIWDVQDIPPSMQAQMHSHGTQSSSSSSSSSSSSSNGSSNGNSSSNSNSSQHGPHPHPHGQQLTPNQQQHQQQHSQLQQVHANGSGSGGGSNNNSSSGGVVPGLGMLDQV

[7] = target: T3, MsEcR (GAL4-EcR DEF with VP16-RXR-USP chimera) (Manduca sexta, UniProt P49883); test: Two-hybrid gene switch assay, luciferase reporter, MsEcR, mouse NIH3T3 cells; conditions: EC50, FIG. 13A/13B, GAL4-EcR(DEF) with VP16-RXR-USP chimera
T3 sequence (P49883 1-556): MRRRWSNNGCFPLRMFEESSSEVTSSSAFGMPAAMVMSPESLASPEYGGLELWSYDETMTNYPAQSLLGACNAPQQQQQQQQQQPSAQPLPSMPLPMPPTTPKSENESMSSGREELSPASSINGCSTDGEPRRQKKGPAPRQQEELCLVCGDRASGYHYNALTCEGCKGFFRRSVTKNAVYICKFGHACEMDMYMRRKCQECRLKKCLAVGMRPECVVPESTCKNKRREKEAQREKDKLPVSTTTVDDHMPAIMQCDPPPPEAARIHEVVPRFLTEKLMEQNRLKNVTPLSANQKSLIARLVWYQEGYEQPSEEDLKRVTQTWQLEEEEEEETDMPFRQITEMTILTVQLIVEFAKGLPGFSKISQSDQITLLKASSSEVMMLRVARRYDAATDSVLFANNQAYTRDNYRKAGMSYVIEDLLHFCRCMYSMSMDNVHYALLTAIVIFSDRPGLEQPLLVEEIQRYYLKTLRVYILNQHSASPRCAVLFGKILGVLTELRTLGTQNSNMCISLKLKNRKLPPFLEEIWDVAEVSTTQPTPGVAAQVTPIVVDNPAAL
T3 sequence (P28702 1-533 partner): T2 sequence (P28702 1-533 partner)

[8] = target: BmEcR (GAL4-EcR DEF with VP16-RXR-USP chimera) (Bombyx mori, UniProt P49881); test: Two-hybrid gene switch assay, luciferase reporter, BmEcR, mouse NIH3T3 cells; type: cell-based; conditions: FIG. 13A/13B; BmEcR, GAL4-EcR(DEF) with VP16-RXR-USP chimera; read-out: EC50
Sequence of BmEcR (GAL4-EcR DEF with VP16-RXR-USP chimera) (P49881 other isoform, or with tags, fused parts or gaps, change not shown): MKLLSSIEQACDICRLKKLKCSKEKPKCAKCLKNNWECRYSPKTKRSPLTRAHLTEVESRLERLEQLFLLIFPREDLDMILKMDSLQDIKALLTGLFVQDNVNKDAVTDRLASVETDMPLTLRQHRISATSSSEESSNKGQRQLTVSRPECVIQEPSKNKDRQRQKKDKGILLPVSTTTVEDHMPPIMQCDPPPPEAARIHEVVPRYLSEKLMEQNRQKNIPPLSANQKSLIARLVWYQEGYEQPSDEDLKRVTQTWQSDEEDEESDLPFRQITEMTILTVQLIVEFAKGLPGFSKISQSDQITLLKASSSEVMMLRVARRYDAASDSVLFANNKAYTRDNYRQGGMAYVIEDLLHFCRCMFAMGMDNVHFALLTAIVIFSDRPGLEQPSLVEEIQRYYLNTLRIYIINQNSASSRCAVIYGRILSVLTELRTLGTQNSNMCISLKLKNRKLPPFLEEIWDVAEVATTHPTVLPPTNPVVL

[9] = target: T4, BaEcR (GAL4-EcR DEF with VP16-RXR-USP chimera) (Bemisia tabaci, UniProt A0A6M3RDR8); test: Two-hybrid gene switch assay, luciferase reporter, BaEcR, mouse NIH3T3 cells; conditions: EC50, FIG. 14A/14B, GAL4-EcR(DEF) with VP16-RXR-USP chimera
T4 sequence (A0A6M3RDR8 115-530): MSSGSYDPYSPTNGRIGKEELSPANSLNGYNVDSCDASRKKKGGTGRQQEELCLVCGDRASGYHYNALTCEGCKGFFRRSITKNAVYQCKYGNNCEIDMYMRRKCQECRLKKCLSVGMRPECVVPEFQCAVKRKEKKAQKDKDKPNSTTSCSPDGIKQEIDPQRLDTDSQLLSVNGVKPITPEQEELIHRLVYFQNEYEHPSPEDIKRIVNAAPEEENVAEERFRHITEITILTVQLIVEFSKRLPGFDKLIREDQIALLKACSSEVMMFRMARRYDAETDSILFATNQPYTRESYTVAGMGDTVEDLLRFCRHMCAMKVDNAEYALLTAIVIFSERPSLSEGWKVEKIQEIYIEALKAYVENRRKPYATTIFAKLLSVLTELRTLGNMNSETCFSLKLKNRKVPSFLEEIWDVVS
T4 sequence (P28702 1-533 partner): T2 sequence (P28702 1-533 partner)

[10] = D. melanogaster BII cell line, turbidometric

| Structure (SMILES) | EC50 [1, 10] [M] | EC50 ([1]; Drosophila melanogaster) [M] | further results |
| --- | --- | --- | --- |
| COC(CCC(C)C)[C@](C)(O)[C@H]1CC[C@@]2(O)C3=CC(=O)[C@@H]4C[C@@H](OC)[C@@H](O)C[C@]4(C)[C@H]3CC[C@]12C (stereo partly drawn) [compound 20, ponasterone A, 3,22-dimethyl ether] | 1.2e-08 | – | – |
| CO[C@H](CCC(C)(C)O)[C@](C)(O)C1CC[C@@]2(OC)C3=CC(=O)C4C[C@@H](O)[C@@H](O)CC4(C)C3CCC12C (stereo partly drawn) [compound 13, 20-hydroxyecdysone, 14,22-dimethyl ether] | – | 2.5e-06 | – |
| CO[C@H]1C[C@@]2(C)[C@@H](C[C@H]1O)C(=O)C=C1[C@@H]2CC[C@]2(C)[C@@H]([C@@](C)(O)[C@@H](CCC(C)C)OC)CC[C@@]12O [compound 19, ponasterone A, 2,22-dimethyl ether] | 3e-08 | – | – |
| COC(C)(C)CC[C@@H](O)[C@](C)(O)[C@H]1CC[C@@]2(O)C3=CC(=O)[C@@H]4C[C@@H](O)[C@@H](O)C[C@]4(C)[C@H]3CC[C@]12C [compound 10, 20-hydroxyecdysone-25-methyl ether] | 6e-08 | – | – |
| CO[C@@]12CC[C@H]([C@@](C)(O)[C@H](O)CCC(C)C)[C@@]1(C)CC[C@H]1C2=CC(=O)[C@@H]2C[C@@H](O)[C@@H](O)C[C@@]21C [compound 17, ponasterone A, 14-methyl ether] | 6e-08 | – | – |
| CCCO[C@H](CCC(C)(C)O)[C@](C)(O)C1CC[C@@]2(O)C3=CC(=O)C4C[C@@H](O)[C@@H](O)CC4(C)C3CCC12C (stereo partly drawn) [compound 6, 20-hydroxyecdysone, 22-n-propyl ether] | – | 8.3e-07 | – |
| CCC1(O[C@H](CCC(C)(C)O)[C@](C)(O)C2CC[C@@]3(O)C4=CC(=O)C5C[C@@H](O)[C@@H](O)CC5(C)C4CCC23C)CO1 (stereo partly drawn) [compound 23, 20-hydroxyecdysone, 22-(28R,S)-2′-ethyloxiranyl ether] | – | 2.2e-05 | – |
| CO[C@H]1C[C@@]2(C)[C@@H](C[C@H]1O)C(=O)C=C1[C@@H]2CC[C@]2(C)[C@@H]([C@@](C)(O)[C@H](O)CCC(C)C)CC[C@@]12O [compound 16, ponasterone A, 2-methyl ether] | 4.3e-08 | – | – |
| CO[C@H](CCC(C)C)[C@](C)(O)[C@H]1CC[C@@]2(OC)C3=CC(=O)[C@@H]4C[C@@H](O)[C@@H](O)C[C@]4(C)[C@H]3CC[C@]12C [compound 21, ponasterone A, 14,22-dimethyl ether] | 1.7e-07 | – | – |
| CO[C@H]1C[C@@]2(C)[C@@H](C[C@H]1O)C(=O)C=C1[C@@H]2CC[C@]2(C)[C@@H]([C@@](C)(O)[C@@H](CCC(C)(C)O)OC)CC[C@@]12O [compound 11, 20-hydroxyecdysone, 2,22-dimethyl ether] | 9.3e-07 | – | – |
| CO[C@H](CCC(C)(C)OC)[C@](C)(O)[C@H]1CC[C@@]2(O)C3=CC(=O)[C@@H]4C[C@@H](O)[C@@H](O)C[C@]4(C)[C@H]3CC[C@]12C [compound 14, 20-hydroxyecdysone, 22,25-dimethyl ether] | 1.2e-07 | – | – |
| CO[C@H]1CC2(C)C(C[C@H]1OC)C(=O)C=C1C2CCC2(C)C([C@@](C)(O)[C@@H](CCC(C)(C)O)OC)CC[C@@]12OC (stereo partly drawn) [compound 15, 20-hydroxyecdysone, 2,3,14,22-tetramethyl ether] | – | 9e-05 | – |
| CO[C@H]1C[C@@]2(C)[C@@H](C[C@H]1O)C(=O)C=C1[C@@H]2CC[C@]2(C)[C@@H]([C@@](C)(O)C(O)CCC(C)(C)O)CC[C@@]12O (stereo partly drawn) [compound 1, 20-hydroxyecdysone, 2-methyl ether] | 1.1e-06 | – | – |
| CCCCO[C@H](CCC(C)(C)O)[C@](C)(O)C1CC[C@@]2(O)C3=CC(=O)C4C[C@@H](O)[C@@H](O)CC4(C)C3CCC12C (stereo partly drawn) [compound 8, 20-hydroxyecdysone, 22-n-butyl ether] | – | 1e-07 | – |
| CO[C@@]12CCC([C@@](C)(O)[C@H](O)CCC(C)(C)O)C1(C)CCC1C2=CC(=O)C2C[C@@H](O)[C@@H](O)CC21C (stereo partly drawn) [compound 3, 20-hydroxyecdysone, 14-methyl ether] | – | 3.2e-06 | – |
| C=CCO[C@H](CCC(C)(C)O)[C@](C)(O)C1CC[C@@]2(O)C3=CC(=O)C4C[C@@H](O)[C@@H](O)CC4(C)C3CCC12C (stereo partly drawn) [compound 7, 20-hydroxyecdysone, 22-allyl ether] | – | 1.6e-07 | – |
| CC(C)(O)CC[C@@H](O)[C@](C)(O)[C@H]1CC[C@@]2(O)C3=CC(=O)[C@@H]4C[C@H](O)[C@@H](O)C[C@]4(C)[C@H]3CC[C@]12C | – | – | EC50 [2]: 4840 nM; EC50 [3]: > 33000 nM; EC50 [4]: ~20000 nM; EC50 [5]: ~10000 nM; EC50 [6]: ~8000 nM; EC50 [7]: ~10000 nM; EC50 [8]: > 33000 nM; EC50 [9]: ~20000 nM |
